Measurements as given in the NIST ThermoML archive (doi:10.1016/j.tca.2005.10.008).

Columns and labels:
[1] = xn = mol fraction of the nth substance listed; conditions: 303.15 K, 101 kPa, Liquid; for viscosity: Capillary tube (Ostwald / Ubbelohde) method; for excess molar volume: Direct dilatometry; for speed of sound: Linear variable-path acoustic interferometer
[2] = Liquid; for viscosity / speed of sound: 101.3 kPa; for viscosity: Capillary tube (Ostwald / Ubbelohde) method; for speed of sound: Linear variable-path acoustic interferometer; for mass density: 101.33 kPa, Pycnometric method; for Normal boiling temperature: Distillation

CC(C)OC(C)C [diisopropyl ether] + CC(C)CC(C)(C)C
[1]
Conditions | excess molar volume [m3/mol] | speed of sound [m/s] | viscosity [mPa·s]
x1 = 0.1561 | 1.43e-07 | 1047.6 | 0.441
x1 = 0.2397 | 2.09e-07 | 1040.4 | 0.432
x1 = 0.3083 | 2.28e-07 | 1034.5 | 0.422
x1 = 0.4565 | 2.79e-07 | 1022.6 | 0.405
x1 = 0.4804 | 2.75e-07 | 1019.7 | 0.4
x1 = 0.6222 | 2.5e-07 | 1007.5 | 0.38
x1 = 0.8133 | 1.54e-07 | 991.1 | 0.36
x1 = 0.8775 | 1.24e-07 | 985.6 | 0.355
x1 = 1 | – | 974.9 | 0.35

CC(C)CC(C)(C)C [2,2,4-trimethylpentane]
[2], 303.15 K
Conditions | speed of sound [m/s] | viscosity [mPa·s]
– | 1060.8 | 0.455

CCCCCCCC [octane]
[2]
Conditions | mass density [kg/m3] | speed of sound [m/s] | viscosity [mPa·s]
298.15 K | 697.36 | – | –
303.15 K | 692.56 | 1152 | 0.477

Conditions | Normal boiling temperature [°C]
[2] | 126.00

CC(C)OC(C)C [diisopropyl ether] + C1CCCCC1
[1]
Conditions | excess molar volume [m3/mol] | speed of sound [m/s] | viscosity [mPa·s]
x1 = 0.118 | 3.2e-08 | 1187.4 | 0.666
x1 = 0.2172 | 4.7e-08 | 1157.7 | 0.589
x1 = 0.357 | 6.3e-08 | 1117.9 | 0.513
x1 = 0.3972 | 6.6e-08 | 1106.9 | 0.494
x1 = 0.5029 | 6.9e-08 | 1080.7 | 0.452
x1 = 0.6777 | 6.3e-08 | 1041.6 | 0.403
x1 = 0.8199 | 3.9e-08 | 1011.6 | 0.373
x1 = 1 | – | 974.9 | 0.35

CC(C)CC(C)(C)C [2,2,4-trimethylpentane] + CC(C)OC(C)C
[1], x2 = 0
Conditions | speed of sound [m/s] | viscosity [mPa·s]
– | 1060.8 | 0.455

c1ccccc1 [benzene]
[2]
Conditions | mass density [kg/m3] | speed of sound [m/s] | viscosity [mPa·s]
298.15 K | 873.64 | – | –
303.15 K | 868.39 | 1275.5 | 0.566

Conditions | Normal boiling temperature [°C]
[2] | 80.00

CC(C)OC(C)C [diisopropyl ether] + CCCCCCCC
[1]
Conditions | excess molar volume [m3/mol] | speed of sound [m/s] | viscosity [mPa·s]
x1 = 0.165 | 1.58e-07 | 1125.5 | 0.464
x1 = 0.2501 | 2.26e-07 | 1112.3 | 0.451
x1 = 0.3816 | 2.95e-07 | 1090.5 | 0.429
x1 = 0.4395 | 3.04e-07 | 1080.3 | 0.417
x1 = 0.4911 | 3.02e-07 | 1071.7 | 0.404
x1 = 0.6217 | 2.78e-07 | 1048.3 | 0.381
x1 = 0.7805 | 2.03e-07 | 1018.9 | 0.36
x1 = 0.8706 | 1.26e-07 | 1000.4 | 0.354
x1 = 1 | – | 974.9 | 0.35

C1CCC2CCCCC2C1 (centres undefined) [decahydronaphthalene] + CC(C)OC(C)C
[1]
Conditions | excess molar volume [m3/mol] | speed of sound [m/s] | viscosity [mPa·s]
x2 = 0 | – | 1404 | 2.091
x2 = 0.1596 | -4e-07 | 1329 | 1.586
x2 = 0.2785 | -6.03e-07 | 1282.3 | 1.289
x2 = 0.4286 | -7.39e-07 | 1220.1 | 0.989
x2 = 0.4734 | -7.6e-07 | 1199.7 | 0.913
x2 = 0.6153 | -7.24e-07 | 1141.3 | 0.706
x2 = 0.7514 | -5.84e-07 | 1084.9 | 0.553
x2 = 0.8663 | -3.59e-07 | 1035.8 | 0.448

CC(C)OC(C)C [diisopropyl ether] + c1ccc2c(c1)CCCC2
[1], x1 = 1
Conditions | speed of sound [m/s] | viscosity [mPa·s]
– | 974.9 | 0.35

CCCCCC [hexane] + CC(C)OC(C)C
[1], x2 = 0
Conditions | speed of sound [m/s] | viscosity [mPa·s]
– | 1052.9 | 0.309

CC(C)OC(C)C [diisopropyl ether] + CCCCCC
[1]
Conditions | excess molar volume [m3/mol] | speed of sound [m/s] | viscosity [mPa·s]
x1 = 0.1305 | 1.37e-07 | 1039.2 | 0.312
x1 = 0.2555 | 2.45e-07 | 1027.5 | 0.315
x1 = 0.392 | 3.26e-07 | 1016 | 0.319
x1 = 0.4661 | 3.44e-07 | 1009.9 | 0.321
x1 = 0.5633 | 3.34e-07 | 1002.6 | 0.325
x1 = 0.605 | 3.25e-07 | 999.6 | 0.326
x1 = 0.7173 | 2.79e-07 | 992.4 | 0.331
x1 = 0.846 | 1.74e-07 | 984.4 | 0.338
x1 = 1 | – | 974.9 | 0.35

CCCCCC [hexane]
[2]
Conditions | mass density [kg/m3] | speed of sound [m/s] | viscosity [mPa·s]
298.15 K | 654.9 | – | –
303.15 K | 650.64 | 1052.9 | 0.309

Conditions | Normal boiling temperature [°C]
[2] | 68.70

c1ccc2c(c1)CCCC2 [1,2,3,4-tetrahydronaphthalene] + CC(C)OC(C)C
[1]
Conditions | excess molar volume [m3/mol] | speed of sound [m/s] | viscosity [mPa·s]
x2 = 0 | – | 1477 | 1.749
x2 = 0.1358 | -7.08e-07 | 1396.1 | 1.445
x2 = 0.2509 | -1.135e-06 | 1342.5 | 1.223
x2 = 0.3997 | -1.459e-06 | 1276.3 | 0.976
x2 = 0.4474 | -1.505e-06 | 1253 | 0.904
x2 = 0.5718 | -1.503e-06 | 1191.8 | 0.739
x2 = 0.7163 | -1.261e-06 | 1119.7 | 0.578
x2 = 0.8473 | -8.13e-07 | 1054.2 | 0.46

c1ccc2c(c1)CCCC2 [1,2,3,4-tetrahydronaphthalene]
[2]
Conditions | mass density [kg/m3] | speed of sound [m/s] | viscosity [mPa·s]
298.15 K | 965.89 | – | –
303.15 K | 955.44 | 1477 | 1.749

Conditions | Normal boiling temperature [°C]
[2] | 208.30

CCCCCCCC [octane] + CC(C)OC(C)C
[1], x2 = 0
Conditions | speed of sound [m/s] | viscosity [mPa·s]
– | 1152 | 0.477

CC(C)OC(C)C [diisopropyl ether] + CCCCCCC
[1]
Conditions | excess molar volume [m3/mol] | speed of sound [m/s] | viscosity [mPa·s]
x1 = 0.1462 | 1.67e-07 | 1090.7 | 0.385
x1 = 0.2667 | 2.45e-07 | 1072.8 | 0.377
x1 = 0.4165 | 3.16e-07 | 1050.6 | 0.365
x1 = 0.4774 | 3.24e-07 | 1041.8 | 0.359
x1 = 0.5331 | 3.27e-07 | 1033.9 | 0.356
x1 = 0.6068 | 3.01e-07 | 1023.9 | 0.352
x1 = 0.7371 | 2.61e-07 | 1006.9 | 0.346
x1 = 0.8642 | 1.73e-07 | 991.3 | 0.345
x1 = 1 | – | 974.9 | 0.35

CC(C)OC(C)C [diisopropyl ether] + c1ccccc1
[1]
Conditions | excess molar volume [m3/mol] | speed of sound [m/s] | viscosity [mPa·s]
x1 = 0.0962 | -1.61e-07 | 1232.1 | 0.542
x1 = 0.1813 | -2.87e-07 | 1201.5 | 0.522
x1 = 0.3084 | -4.17e-07 | 1159.2 | 0.492
x1 = 0.3375 | -4.42e-07 | 1148.4 | 0.486
x1 = 0.4703 | -4.86e-07 | 1108.5 | 0.456
x1 = 0.6323 | -4.62e-07 | 1064.1 | 0.422
x1 = 0.7927 | -3.32e-07 | 1022.2 | 0.389
x1 = 1 | – | 974.9 | 0.35

CC(C)OC(C)C [diisopropyl ether]
[2]
Conditions | mass density [kg/m3] | speed of sound [m/s] | viscosity [mPa·s]
298.15 K | 718.14 | – | –
303.15 K | 711.97 | 974.9 | 0.35

Conditions | Normal boiling temperature [°C]
[2] | 68.20

CC(C)OC(C)C [diisopropyl ether] + C1CCC2CCCCC2C1
[1], x1 = 1
Conditions | speed of sound [m/s] | viscosity [mPa·s]
– | 974.9 | 0.35

CCCCCCC [heptane] + CC(C)OC(C)C
[1], x2 = 0
Conditions | speed of sound [m/s] | viscosity [mPa·s]
– | 1110.5 | 0.387

CCCCCCC [heptane]
[2]
Conditions | mass density [kg/m3] | speed of sound [m/s] | viscosity [mPa·s]
298.15 K | 678.93 | – | –
303.15 K | 674.38 | 1110.5 | 0.387

Conditions | Normal boiling temperature [°C]
[2] | 98.20

C1CCCCC1 [cyclohexane]
[2]
Conditions | mass density [kg/m3] | speed of sound [m/s] | viscosity [mPa·s]
298.15 K | 773.98 | – | –
303.15 K | 769.14 | 1231 | 0.793

Conditions | Normal boiling temperature [°C]
[2] | 80.80

c1ccccc1 [benzene] + CC(C)OC(C)C
[1], x2 = 0
Conditions | speed of sound [m/s] | viscosity [mPa·s]
– | 1275.5 | 0.566

C1CCCCC1 [cyclohexane] + CC(C)OC(C)C
[1], x2 = 0
Conditions | speed of sound [m/s] | viscosity [mPa·s]
– | 1231 | 0.793

C1CCC2CCCCC2C1 (centres undefined) [decahydronaphthalene]
[2]
Conditions | mass density [kg/m3] | speed of sound [m/s] | viscosity [mPa·s]
298.15 K | 879.14 | – | –
303.15 K | 868.5 | 1404 | 2.091

Conditions | Normal boiling temperature [°C]
[2] | 191.10
